Test results published in the supplement of paper PMC8671470.

How the values were obtained:
Details in all cases: 72 h
BV-173 [1] = system: BV-173
Summary of the method: (§1)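 Fifteen myeloid leukaemia lines in RPMI 1640 were treated for 72 h at 37 °C and 5% CO2 with five tenfold doses from 1 to 10,000 nM, in duplicate. ATP luminescence was normalised to vehicle and to a positive control at 10 µM, then fitted with a four-parameter log-logistic model. The IC50 came from these fits.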

HEL = system: HEL
Summary of the method: as §1

HL-60 [2] = system: HL-60
Summary of the method: as §1

K-562 [3] = system: K-562
Summary of the method: as §1

KCL-22 [4] = system: KCL-22
Summary of the method: as §1

KG-1 [5] = system: KG-1
Summary of the method: as §1

KU-812 [6] = system: KU-812
Summary of the method: as §1

LAMA-84 [7] = system: LAMA-84
Summary of the method: as §1

ML-2 [8] = system: ML-2
Summary of the method: as §1

MOLM-13 [9] = system: MOLM-13
Summary of the method: as §1

MV4-11 [10] = system: MV4-11
Summary of the method: as §1

Mono-Mac-6 = system: Mono-Mac-6
Summary of the method: as §1

NOMO-1 [11] = system: NOMO-1
Summary of the method: as §1

SHI-1 = system: SHI-1
Summary of the method: as §1

THP-1 [12] = system: THP-1
Summary of the method: as §1

HL-60 [13] = assay: cell viability (% survival relative to DMSO control); higher = less cytotoxic
Summary of the method: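 Area under the curve, where listed, was derived from four-parameter log-logistic fits with drc and PharmacoGx. These fits used CellTiter-Glo viability from HL-60 cells in RPMI 1640 with 10% FBS, normalised to DMSO wells and wells holding 10 μM proteasome inhibitor. The full library was rescreened on 384-well plates in duplicate at five tenfold concentrations, 1–10,000 nM, with DMSO or 100 nM of one of three metabolic inhibitors, for 72 h at 37 °C, 5% CO2.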

BV-173 [14] = assay: cell viability (% survival relative to DMSO control, bortezomib = 0%); higher = less cytotoxic
Summary of the method: (§2)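 After 72 h at 37 °C with 5% CO2, cell viability in 384-well plates was measured by CellTiter-Glo luminescence. The plates held compounds pre-printed at 1, 10, 100, 1000 or 10000 nM in duplicate, and cells from 10 AML and 5 CML lines seeded at densities titrated to linear growth. Percent survival is the duplicate mean, normalised to vehicle as 100% and a 10 µM positive control as 0%.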

HL-60 [15] = assay: as above
Summary of the method: as §2

K-562 [16] = assay: as above
Summary of the method: as §2

KCL-22 [17] = assay: as above
Summary of the method: as §2

KG-1 [18] = assay: as above
Summary of the method: as §2

KU-812 [19] = assay: as above
Summary of the method: as §2

LAMA-84 [20] = assay: as above
Summary of the method: as §2

ML-2 [21] = assay: as above
Summary of the method: as §2

MOLM-13 [22] = assay: as above
Summary of the method: as §2

MV4-11 [23] = assay: as above
Summary of the method: as §2

NOMO-1 [24] = assay: as above
Summary of the method: as §2

THP-1 [25] = assay: as above
Summary of the method: as §2

O=C(O)c1cc(N=Nc2ccc(S(=O)(=O)Nc3ccccn3)cc2)ccc1O [Sulfasalazine]
Details	IC50 (cell viability) [µM]
BV-173 [1]	> 10
HEL	> 10
HL-60 [2]	> 10
K-562 [3]	> 10
KCL-22 [4]	> 10
KG-1 [5]	> 10
KU-812 [6]	> 10
LAMA-84 [7]	> 10
ML-2 [8]	> 10
MOLM-13 [9]	> 10
MV4-11 [10]	> 10
Mono-Mac-6	> 10
NOMO-1 [11]	> 10
SHI-1	> 10
THP-1 [12]	> 10

cell viability [%], HL-60 [13]
Details	0.001 µM	0.01 µM	0.1 µM	1 µM	10 µM
co-treatment: AZD3965 100 nM	101.5	109	96	97.23	111
co-treatment: DMSO vehicle	101	101.7	98.9	100.2	104
co-treatment: GSK2194069 100 nM	105	103	101	103	105
co-treatment: pictilisib 100 nM	107	103	93.57	92.3	112

cell viability [%]
Details	1 nM	10 nM	100 nM	1000 nM	10000 nM
BV-173 [14]	106	90.3	113	99.7	112
HL-60 [15]	99.4	71.4	135	106	70.8
K-562 [16]	100	91.6	120	90.3	131
KCL-22 [17]	107	97.3	106	92.9	124
KG-1 [18]	103	89	112	43.4	128
KU-812 [19]	110	98.2	107	108	102
LAMA-84 [20]	105	97.1	101	106	105
ML-2 [21]	106	87.4	118	112	102
MOLM-13 [22]	105	102	113	84.6	136
MV4-11 [23]	101	89.1	112	95.9	103
NOMO-1 [24]	112	101	99	101	102
THP-1 [25]	107	101	106	101	106

O[C@H]1[C@H]2[C@H](O)CCCN2C[C@H]1O [Swainsonine]
Details	IC50 (cell viability) [µM]
BV-173 [1]	> 10
HEL	> 10
HL-60 [2]	> 10
K-562 [3]	> 10
KCL-22 [4]	> 10
KG-1 [5]	> 10
KU-812 [6]	> 10
LAMA-84 [7]	> 10
ML-2 [8]	> 10
MOLM-13 [9]	> 10
MV4-11 [10]	> 10
Mono-Mac-6	> 10
NOMO-1 [11]	> 10
SHI-1	> 10
THP-1 [12]	> 10

cell viability [%], HL-60 [13]
Details	0.001 µM	0.01 µM	0.1 µM	1 µM	10 µM
co-treatment: AZD3965 100 nM	97.6	103.58	97.5	98.4	102
co-treatment: DMSO vehicle	99.37	104	102	103	108
co-treatment: GSK2194069 100 nM	98.4	110	97.2	90.3	106
co-treatment: pictilisib 100 nM	101	108	91.9	120	106

cell viability [%]
Details	1 nM	10 nM	100 nM	1000 nM	10000 nM
BV-173 [14]	98.1	104	98.3	90.8	86.1
HL-60 [15]	107	88	104	95.8	112
K-562 [16]	109	107	102	101	107
KCL-22 [17]	88.9	92.3	102	98.1	89.9
KG-1 [18]	108	107	92.2	87.9	93.1
KU-812 [19]	104	100	100	99.8	109
LAMA-84 [20]	112	94	103	99.7	98.6
ML-2 [21]	97.9	97.7	108	86.4	79.5
MOLM-13 [22]	97.8	94.2	102	87.7	85.6
MV4-11 [23]	102	113	87.2	69.8	69.3
NOMO-1 [24]	109	103	99.4	94.7	94.1
THP-1 [25]	102	102	106	97.8	101
